Laboratory results reported in patent US20230303561A1, “PYRIMIDINONE DERIVATIVE, PREPARATION METHOD THEREOF AND USE THEREOF IN RESISTING MYCOBACTERIUM TUBERCULOSIS INFECTION” (INSTITUTE OF MEDICINAL BIOTECHNOLOGY, CHINESE ACADEMY OF …, priority 2020, published 2023).
≈ marks a conversion by molar mass, not a printed value. Where two headings read alike, the source gives them in different places.

Test system: MTB H37Rv
Assay: Bacteriostasis experiment: MIC in 96-well plate, two-fold dilution method
Type: cell-based, Mycobacterium tuberculosis
Conditions: for MIC: Mycobacterium tuberculosis, ATCC 27294 / H37Rv, 240 h, read-out: Inhibitory activity against Mycobacterium tuberculosis, MIC, MTB H37Rv; for anti-mycobacterium tuberculosis MIC compared with the positive control drug INH: MTB H37Rv, statement on Table 1 data
[1] = MTB H37Rv (ATCC 27294), 7H9 medium, 37° C., about 10 days

SMILES	MIC [1]	further results
CCCSc1nc2c(c(=O)[nH]1)C(c1ccnc3ccccc13)CC(=O)N2 (stereo not shown) [LSL-10-06, 2-propylmercapto-5-(quinolin-4-yl)-5,6-dihydropyrido[2,3-d]pyrimidin-4,7(3H,8H)-dione]	4 mg/L (≈ 10.9 µM)	–
CCCSc1nc2c(c(=O)[nH]1)C(c1cccc3ncccc13)CC(=O)N2 (stereo not shown) [LSL-10-07, 2-propylmercapto-5-(quinolin-5-yl)-5,6-dihydropyrido[2,3-d]pyrimidin-4,7(3H,8H)-dione]	16 mg/L (≈ 43.7 µM)	–
CCCCSc1nc2c(c(=O)[nH]1)C(c1ccc(OCCC)cc1)CC(=O)N2 (stereo not shown) [LSL-10-23, 2-butylmercapto-5-(4-propoxyphenyl)-5,6-dihydropyrido[2,3-d]pyrimidin-4,7(3H,8H)-dione]	16 mg/L (≈ 41.3 µM)	–
CCCSc1nc2c(c(=O)[nH]1)C(c1ccc(N3CCOCC3)cc1)CC(=O)N2 (stereo not shown) [LSL-10-43, 2-propylmercapto-5-(4-morpholinophenyl)-5,6-dihydropyrido[2,3-d]pyrimidin-4,7(3H,8H)-dione]	1 mg/L (≈ 2.5 µM)	–
CCCSc1nc2c(c(=O)[nH]1)C(c1ccc(N3CCCCC3)cc1)CC(=O)N2 (stereo not shown) [LSL-10-48, 2-propylmercapto-5-(4-(piperidin-1-yl)phenyl)-5,6-dihydropyrido[2,3-d]pyrimidin-4,7(3H,8H)-dione]	2 mg/L (≈ 5.02 µM)	–
CCCSc1nc2c(c(=O)[nH]1)C(c1ccc(N3CCSCC3)cc1)CC(=O)N2 (stereo not shown) [LSL-10-50, 2-propylmercapto-5-(4-thiomorpholinophenyl)-5,6-dihydropyrido[2,3-d]pyrimidin-4,7(3H,8H)-dione]	1 mg/L (≈ 2.4 µM)	–
CCCSc1nc2nccc(-c3ccc(OC)cc3)c2c(=O)[nH]1 [LSL-11-02, 2-propylmercapto-5-(4-methoxyphenyl)-pyrido[2,3-d]pyrimidin-4(3H)-one]	0.5 mg/L (≈ 1.53 µM)	anti-mycobacterium tuberculosis MIC compared with the positive control drug INH: equivalent to that of the positive control drug INH
CCCSc1nc2nccc(-c3ccc4ncccc4c3)c2c(=O)[nH]1 [LSL-11-08, 2-propylmercapto-5-(quinolin-6-yl)-pyrido[2,3-d]pyrimidin-4(3H)-one]	0.25 mg/L (≈ 0.718 µM)	anti-mycobacterium tuberculosis MIC compared with the positive control drug INH: equivalent to that of the positive control drug INH
CCCSc1nc2[nH]c(=O)cc(-c3ccc(OC)cc3)c2c(=O)[nH]1 [LSL-11-09, 2-propylmercapto-5-(4-methoxyphenyl)-pyrido[2,3-d]pyrimidin-4,7(3H,8H)-dione]	0.25 mg/L (≈ 0.728 µM)	anti-mycobacterium tuberculosis MIC compared with the positive control drug INH: equivalent to that of the positive control drug INH
CCCSc1nc2c(c(=O)[nH]1)C(c1ccc3occc3c1)CC(=O)N2 (stereo not shown) [LSL-11-17, 2-propylmercapto-5-(benzofuran-5-yl)-5,6-dihydropyrido[2,3-d]pyrimidin-4,7(3H,8H)-dione]	–	Inhibitory activity against Mycobacterium tuberculosis, MIC, MTB H37Rv [1]: 4 mg/L
CCCSc1nc2c(c(=O)[nH]1)C(c1nc3ccccc3s1)CC(=O)N2 (stereo not shown) [LSL-11-18, 2-propylmercapto-5-(benzothiazol-2-yl)-5,6-dihydropyrido[2,3-d]pyrimidin-4,7(3H,8H)-dione]	2 mg/L (≈ 5.37 µM)	–
CCCSc1nc2c(c(=O)[nH]1)C(c1ccc(Sc3ccccc3)cc1)CC(=O)N2 (stereo not shown) [LSL-11-19, 2-propylmercapto-5-(4-phenylthiophenyl)-5,6-dihydropyrido[2,3-d]pyrimidin-4,7(3H,8H)-dione]	8 mg/L (≈ 18.9 µM)	–
CCCSc1nc2c(c(=O)[nH]1)C(c1ccc(S(C)(=O)=O)cc1)CC(=O)N2 (stereo not shown) [LSL-11-20, 2-propylmercapto-5-(4-methanesulfonylphenyl)-5,6-dihydropyrido[2,3-d]pyrimidin-4,7(3H,8H)-dione]	1 mg/L (≈ 2.54 µM)	–
CCCSc1nc2c(c(=O)[nH]1)C(c1ccc(SC)cc1)CC(=O)N2 (stereo not shown) [LSL-11-21, 2-propylmercapto-5-(4-methylthiophenyl)-5,6-dihydropyrido[2,3-d]pyrimidin-4,7(3H,8H)-dione]	0.5 mg/L (≈ 1.38 µM)	anti-mycobacterium tuberculosis MIC compared with the positive control drug INH: equivalent to that of the positive control drug INH
CCCSc1nc2c(c(=O)[nH]1)C(c1ccc(Br)c([N+](=O)[O-])c1)CC(=O)N2 (stereo not shown) [LSL-11-22, 2-propylmercapto-5-(3-nitro-4-bromophenyl)-5,6-dihydropyrido[2,3-d]pyrimidin-4,7(3H,8H)-dione]	1 mg/L (≈ 2.28 µM)	–
CCCSc1nc2c(c(=O)[nH]1)C(c1ccc(C(=O)O)cc1)CC(=O)N2 (stereo not shown) [LSL-11-24, 2-propylmercapto-5-(4-carboxyphenyl)-5,6-dihydropyrido[2,3-d]pyrimidin-4,7(3H,8H)-dione]	2 mg/L (≈ 5.56 µM)	–
CCCSc1nc2c(c(=O)[nH]1)C(c1ccc(Br)cc1[N+](=O)[O-])CC(=O)N2 (stereo not shown) [LSL-11-25, 2-propylmercapto-5-(2-nitro-4-bromophenyl)-5,6-dihydropyrido[2,3-d]pyrimidin-4,7(3H,8H)-dione]	4 mg/L (≈ 9.11 µM)	–
CCCSc1nc2c(c(=O)[nH]1)C(c1ccccn1)CC(=O)N2 (stereo not shown) [LSL-11-26, 2-propylmercapto-5-(pyridin-2-yl)-5,6-dihydropyrido[2,3-d]pyrimidin-4,7(3H,8H)-dione]	2 mg/L (≈ 6.32 µM)	–
CCCSc1nc2c(c(=O)[nH]1)C(c1ccc(OCC(C)C)cc1)CC(=O)N2 (stereo not shown) [LSL-11-27, 2-propylmercapto-5-(4-isobutoxyphenyl)-5,6-dihydropyrido[2,3-d]pyrimidin-4,7(3H,8H)-dione]	1 mg/L (≈ 2.58 µM)	–
CCCSc1nc2c(c(=O)[nH]1)C(c1cccnc1)CC(=O)N2 (stereo not shown) [LSL-11-28, 2-propylmercapto-5-(pyridin-3-yl)-5,6-dihydropyrido[2,3-d]pyrimidin-4,7(3H,8H)-dione]	2 mg/L (≈ 6.32 µM)	–
CCCSc1nc2c(c(=O)[nH]1)C(c1ccncc1)CC(=O)N2 (stereo not shown) [LSL-11-29, 2-propylmercapto-5-(pyridin-4-yl)-5,6-dihydropyrido[2,3-d]pyrimidin-4,7(3H,8H)-dione]	8 mg/L (≈ 25.3 µM)	–
CCCSc1nc2c(c(=O)[nH]1)C(C1CCCCC1)CC(=O)N2 (stereo not shown) [LSL-11-30, 2-propylmercapto-5-cyclohexyl-5,6-dihydropyrido[2,3-d]pyrimidin-4,7(3H,8H)-dione]	16 mg/L (≈ 49.8 µM)	–
CCCSc1nc2c(c(=O)[nH]1)C(C1CCCC1)CC(=O)N2 (stereo not shown) [LSL-11-31, 2-propylmercapto-5-cyclopentyl-5,6-dihydropyrido[2,3-d]pyrimidin-4,7(3H,8H)-dione]	16 mg/L (≈ 52 µM)	–
CCCSc1nc2c(c(=O)[nH]1)C(c1ccc3c(c1)CCO3)CC(=O)N2 (stereo not shown) [LSL-11-33, 2-propylmercapto-5-(2,3-dihydrobenzofuran-5-yl)-5,6-dihydropyrido[2,3-d]pyrimidin-4,7(3H,8H)-dione]	2 mg/L (≈ 5.6 µM)	–
CCCSc1nc2c(c(=O)[nH]1)C(c1ccc3nccnc3c1)CC(=O)N2 (stereo not shown) [LSL-11-34, 2-propylmercapto-5-(quinoxalin-6-yl)-5,6-dihydropyrido[2,3-d]pyrimidin-4,7(3H,8H)-dione]	4 mg/L (≈ 10.9 µM)	–
CCCSc1nc2c(c(=O)[nH]1)C(c1ccc(OC)nc1)CC(=O)N2 (stereo not shown) [LSL-11-35, 2-propylmercapto-5-(6-methoxypyridin-3-yl)-5,6-dihydropyrido[2,3-d]pyrimidin-4,7(3H,8H)-dione]	1 mg/L (≈ 2.89 µM)	–
CCCSc1nc2c(c(=O)[nH]1)C(c1cnc3ccccc3c1)CC(=O)N2 (stereo not shown) [LSL-11-36, 2-propylmercapto-5-(quinolin-3-yl)-5,6-dihydropyrido[2,3-d]pyrimidin-4,7(3H,8H)-dione]	8 mg/L (≈ 21.8 µM)	–
CCCSc1nc2c(c(=O)[nH]1)C(c1ccoc1)CC(=O)N2 (stereo not shown) [LSL-11-38, 2-propylmercapto-5-(furan-3-y1)-5,6-dihydropyrido[2,3-d]pyrimidin-4,7(3H,8H)-dione]	–	Inhibitory activity against Mycobacterium tuberculosis, MIC, MTB H37Rv [1]: 1 mg/L
CCCCCCCOc1ccc(C2CC(=O)Nc3nc(SCCC)[nH]c(=O)c32)cc1 (stereo not shown) [LSL-11-39, 2-propylmercapto-5-(4-heptoxyphenyl)-5,6-dihydropyrido[2,3-d]pyrimidin-4,7(3H,8H)-dione]	–	anti-mycobacterium tuberculosis MIC compared with the positive control drug INH: equivalent to that of the positive control drug INH; MIC: 0.625 mg/L (≈ 1.45 µM)
